According to the supplement of paper PMC10307832:

How the values were obtained:
Assay in all cases: relative viability (nuclei count vs DMSO), 5 days (fraction); higher = more cells survive
BEN = system: BEN
Outline: (§1)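 Relative viability was taken as the ratio of nuclei in treated wells to nuclei in vehicle wells. Lung cancer cell lines in 1536-well plates received compounds by pin tool one day after seeding, either one drug alone or a fixed anchor-drug dose plus five library-drug doses (not always all listed) in √10 steps. Nuclei were counted on 4× images after 5 days of treatment, and values are medians of duplicate plates.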

CAL-12T = system: CAL-12T
Outline: as §1

COR-L 105 = system: COR-L 105
Outline: as §1

COR-L23 = system: COR-L23
Outline: as §1

HARA = system: HARA
Outline: as §1

HCC-15 = system: HCC-15
Outline: as §1

HCC-366 = system: HCC-366
Outline: as §1

HCC-44 = system: HCC-44
Outline: as §1

HCC-827 = system: HCC-827
Outline: as §1

HOP-62 = system: HOP-62
Outline: as §1

LC-2-ad = system: LC-2-ad
Outline: as §1

LCLC-97TM1 = system: LCLC-97TM1
Outline: as §1

LU99A = system: LU99A
Outline: as §1

LXF-289 = system: LXF-289
Outline: as §1

NCI-H1993 = system: NCI-H1993
Outline: as §1

NCI-H2009 = system: NCI-H2009
Outline: as §1

NCI-H2087 = system: NCI-H2087
Outline: as §1

NCI-H2126 = system: NCI-H2126
Outline: as §1

NCI-H2170 = system: NCI-H2170
Outline: as §1

PC-14 = system: PC-14
Outline: as §1

PC-3 [JPC-3] = system: PC-3 [JPC-3]
Outline: as §1

SK-MES-1 = system: SK-MES-1
Outline: as §1

## Cc1cnc(-c2cnc(NCCNc3ccc(C#N)cn3)nc2-c2ccc(Cl)cc2Cl)[nH]1 + Nc1nc2[nH]cc(CCc3ccc(C(=O)N[C@@H](CCC(=O)O)C(=O)O)cc3)c2c(=O)[nH]1 [Pemetrexed] (partner 0.2 µM)
BEN; first compound 0.08 µM
  relative viability: 0.787
BEN; first compound 0.253 µM
  relative viability: 0.751
BEN; first compound 0.8 µM
  relative viability: 0.771
BEN; first compound 2.53 µM
  relative viability: 0.802
CAL-12T; first compound 0.08 µM
  relative viability: 1.19
CAL-12T; first compound 0.253 µM
  relative viability: 1.04
CAL-12T; first compound 0.8 µM
  relative viability: 1.17
CAL-12T; first compound 2.53 µM
  relative viability: 0.919
COR-L 105; first compound 0.08 µM
  relative viability: 1.25
COR-L 105; first compound 0.253 µM
  relative viability: 1.06
COR-L 105; first compound 0.8 µM
  relative viability: 0.903
COR-L 105; first compound 2.53 µM
  relative viability: 0.832
COR-L23; first compound 0.08 µM
  relative viability: 0.191
COR-L23; first compound 0.253 µM
  relative viability: 0.19
COR-L23; first compound 0.8 µM
  relative viability: 0.198
COR-L23; first compound 2.53 µM
  relative viability: 0.185
HARA; first compound 0.08 µM
  relative viability: 0.277
HARA; first compound 0.253 µM
  relative viability: 0.207
HARA; first compound 0.8 µM
  relative viability: 0.255
HARA; first compound 2.53 µM
  relative viability: 0.235
HCC-15; first compound 0.08 µM
  relative viability: 0.207
HCC-15; first compound 0.253 µM
  relative viability: 0.219
HCC-15; first compound 0.8 µM
  relative viability: 0.216
HCC-15; first compound 2.53 µM
  relative viability: 0.194
HCC-366; first compound 0.08 µM
  relative viability: 0.161
HCC-366; first compound 0.253 µM
  relative viability: 0.137
HCC-366; first compound 0.8 µM
  relative viability: 0.133
HCC-366; first compound 2.53 µM
  relative viability: 0.126
HCC-44; first compound 0.08 µM
  relative viability: 0.633
HCC-44; first compound 0.253 µM
  relative viability: 0.631
HCC-44; first compound 0.8 µM
  relative viability: 0.643
HCC-44; first compound 2.53 µM
  relative viability: 0.685
HCC-827; first compound 0.08 µM
  relative viability: 0.27
HCC-827; first compound 0.253 µM
  relative viability: 0.267
HCC-827; first compound 0.8 µM
  relative viability: 0.245
HCC-827; first compound 2.53 µM
  relative viability: 0.269
HOP-62; first compound 0.08 µM
  relative viability: 0.26
HOP-62; first compound 0.253 µM
  relative viability: 0.339
HOP-62; first compound 0.8 µM
  relative viability: 0.312
HOP-62; first compound 2.53 µM
  relative viability: 0.236
LC-2-ad; first compound 0.08 µM
  relative viability: 0.276
LC-2-ad; first compound 0.8 µM
  relative viability: 0.252
LC-2-ad; first compound 2.53 µM
  relative viability: 0.247
LCLC-97TM1; first compound 0.08 µM
  relative viability: 0.176
LCLC-97TM1; first compound 0.253 µM
  relative viability: 0.183
LCLC-97TM1; first compound 0.8 µM
  relative viability: 0.173
LCLC-97TM1; first compound 2.53 µM
  relative viability: 0.188
LU99A; first compound 0.08 µM
  relative viability: 0.177
LU99A; first compound 0.253 µM
  relative viability: 0.201
LU99A; first compound 0.8 µM
  relative viability: 0.191
LU99A; first compound 2.53 µM
  relative viability: 0.198
LXF-289; first compound 0.08 µM
  relative viability: 0.91
LXF-289; first compound 0.253 µM
  relative viability: 0.818
LXF-289; first compound 0.8 µM
  relative viability: 0.829
LXF-289; first compound 2.53 µM
  relative viability: 0.962
NCI-H1993; first compound 0.08 µM
  relative viability: 0.6
NCI-H1993; first compound 0.253 µM
  relative viability: 0.512
NCI-H1993; first compound 0.8 µM
  relative viability: 0.535
NCI-H1993; first compound 2.53 µM
  relative viability: 0.519
NCI-H2009; first compound 0.08 µM
  relative viability: 0.966
NCI-H2009; first compound 0.253 µM
  relative viability: 0.983
NCI-H2009; first compound 0.8 µM
  relative viability: 0.982
NCI-H2009; first compound 2.53 µM
  relative viability: 0.95
NCI-H2087; first compound 0.08 µM
  relative viability: 0.714
NCI-H2087; first compound 0.8 µM
  relative viability: 0.641
NCI-H2087; first compound 2.53 µM
  relative viability: 0.511
NCI-H2126; first compound 0.08 µM
  relative viability: 0.706
NCI-H2126; first compound 0.253 µM
  relative viability: 0.642
NCI-H2126; first compound 0.8 µM
  relative viability: 0.634
NCI-H2126; first compound 2.53 µM
  relative viability: 0.618
NCI-H2170; first compound 0.08 µM
  relative viability: 0.253
NCI-H2170; first compound 2.53 µM
  relative viability: 0.25
PC-14; first compound 0.08 µM
  relative viability: 0.122
PC-14; first compound 0.253 µM
  relative viability: 0.127
PC-14; first compound 0.8 µM
  relative viability: 0.129
PC-14; first compound 2.53 µM
  relative viability: 0.152
PC-3 [JPC-3]; first compound 0.08 µM
  relative viability: 1.08
PC-3 [JPC-3]; first compound 0.253 µM
  relative viability: 1.02
PC-3 [JPC-3]; first compound 0.8 µM
  relative viability: 1.12
PC-3 [JPC-3]; first compound 2.53 µM
  relative viability: 0.969
SK-MES-1; first compound 0.08 µM
  relative viability: 0.932
SK-MES-1; first compound 0.253 µM
  relative viability: 0.895
SK-MES-1; first compound 0.8 µM
  relative viability: 0.977
SK-MES-1; first compound 2.53 µM
  relative viability: 0.99
